Results on 73 compounds are retold here after PubChem BioAssay AID602191 (Broad Institute, 2012).

This experiment deals with Scavenger receptor class B member 1 (Mus musculus) (UniProt Q61009). Kind of experiment: activators of SR-BI-mediated HDL uptake, dose response, cell-based, ldlA[mSR-BI] CHO, DiI fluorescence, cherry-pick (AID 602191).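 For AC40: potency of activators raising HDL uptake.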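 For activation (HDL uptake increase): 0% = median of DMSO wells and 100% = twice the DMSO signal.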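 Note: cell fluorescence from internalized DiI-labeled HDL after washing.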 The settings on record: ldlA[mSR-BI] CHO cells, 3 h.

The source made the active and inactive calls.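 Rule for the calls: active = fitted curve reaches 40% activation at a concentration no higher than the top valid tested dose; inconclusive = flat fit between 30% and 70% activation, or poor fit; inactive = uptake decrease, flat fit within 30% of zero, the rest.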

Chain of Scavenger receptor class B member 1 (Mus musculus) (Q61009 whole entry, looked up): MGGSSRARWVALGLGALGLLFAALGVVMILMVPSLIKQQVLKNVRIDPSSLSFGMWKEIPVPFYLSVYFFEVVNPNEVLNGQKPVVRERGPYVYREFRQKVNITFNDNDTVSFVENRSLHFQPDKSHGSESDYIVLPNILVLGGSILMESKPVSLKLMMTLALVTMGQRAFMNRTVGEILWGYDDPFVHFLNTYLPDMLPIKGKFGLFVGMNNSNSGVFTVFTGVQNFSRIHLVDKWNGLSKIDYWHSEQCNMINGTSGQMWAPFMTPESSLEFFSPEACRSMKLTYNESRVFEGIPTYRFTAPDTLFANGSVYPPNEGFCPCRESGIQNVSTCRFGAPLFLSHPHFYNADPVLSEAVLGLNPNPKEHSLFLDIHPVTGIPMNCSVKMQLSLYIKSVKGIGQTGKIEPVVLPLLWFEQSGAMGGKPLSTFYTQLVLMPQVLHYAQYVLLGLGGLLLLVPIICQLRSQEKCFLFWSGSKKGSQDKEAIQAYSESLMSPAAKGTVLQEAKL

Consider `Cc1cccc(C)c1OCc1cc(C(=O)N2CCC(c3ccccc3)CC2)no1`, for which, where the note is “at 35 µM (top of the series)”, the activation (HDL uptake increase) was 2.24% (inactive). Still for that read-out and setting: for `CN(C(=O)COC(=O)CN1C(=O)c2cccc([N+](=O)[O-])c2C1=O)c1ccccc1` the value was -5.58% (inactive).

As for `COc1ccccc1CN(C(=O)CCl)C(C(=O)NC1CCCCC1)c1ccncc1` (stereo not drawn), where the note is “at 35 µM (top of the series)”, the activation (HDL uptake increase) is 3.52% (inactive). Same read-out and setting: the figure for `CCOc1ccc(N(CC(=O)NC2CCCCCC2)S(=O)(=O)c2ccccc2)cc1` is 11.8% (inactive).

Regarding `CN1CCN(C(=O)C2=C[C@@H](c3coc4ccccc4c3=O)C[C@@H](OCCCCO)O2)CC1`, the activation (HDL uptake increase) (at 35 µM (top of the series)) was -7.43% (inactive). On the same count and under the same terms, the figure for `Cc1ccc(C2/C(=C(\O)c3ccc4c(c3)OCCO4)C(=O)C(=O)N2Cc2cccnc2)cc1` (stereo not drawn) is -7.31% (inactive). For the compound `Cc1ccc(S(=O)(=O)NC(=O)COc2ccccc2C)c(C)c1`, the activation (HDL uptake increase) (at 35 µM (top of the series)) was 11.3% (inactive).

For the compound `C[C@H](CO)N1C[C@H](C)[C@H](CN(C)C)Oc2ccc(NS(=O)(=O)c3ccc(F)cc3)cc2CC1=O`, the activation (HDL uptake increase) (at 35 µM (top of the series)) was -7.7% (inactive). For the compound `O=C(c1ccc(Cl)cc1)C1CCCN(Cc2ccc3ncccc3c2)C1` (stereo not drawn), the activation (HDL uptake increase) (at 35 µM (top of the series)) is 12.3% (inactive). For `CCOC(=O)C1CCCN(S(=O)(=O)c2ccc3ccccc3c2)C1` (stereo not drawn), where the note is “at 35 µM (top of the series)”, the activation (HDL uptake increase) was -7.01% (inactive). Turning to `O=C(C[C@H]1C/C=C\C[C@@H](Cc2ccc(F)cc2)C(=O)OC[C@H]2CCCN2C1=O)N[C@H](CO)Cc1ccccc1`, the activation (HDL uptake increase) (at 35 µM (top of the series)) is 6.35% (inactive). In the case of `Cc1ccc(C(c2nnnn2C2CCCCC2)N2CCN3CCCC3C2)cc1` (stereo not drawn), the activation (HDL uptake increase) (at 35 µM (top of the series)) is -9.01% (inactive). The same measure, in the same setting: for `Cc1csc(NC(=O)Cc2ccccc2[N+](=O)[O-])n1` the value was 1.17% (inactive).

On to `COCCCNC(=O)CC(NS(=O)(=O)c1ccc(OC)cc1)c1ccc(OC)cc1` (stereo not drawn), for which the activation (HDL uptake increase) (at 35 µM (top of the series)) was -4.2% (inactive).

Consider `O=C(N/N=C\c1cccnc1)c1ccc(Br)s1`, for which the activation (HDL uptake increase) (at 35 µM (top of the series)) was -10.3% (inactive). Same read-out and setting: the figure for `O=C(CNC(=O)c1ccc(Cl)cc1)NCC(F)(F)F` is -9.51% (inactive).

For `C[C@@H]1CN([C@H](C)CO)C(=O)c2cc(NC(=O)Nc3ccc(C(F)(F)F)cc3)ccc2O[C@H]1CN(C)Cc1ccc(Cl)c(Cl)c1`, the activation (HDL uptake increase) (at 35 µM (top of the series)) was -0.198% (inactive). For the compound `O=C(O)CCc1nnc(SCC(=O)Nc2cccc(C(F)(F)F)c2)[nH]c1=O`, the activation (HDL uptake increase) (at 35 µM (top of the series)) was -1.57% (inactive). In the case of `Cc1ccc(OCCOCCN(C)C)c(Cl)c1`, the activation (HDL uptake increase) (at 35 µM (top of the series)) was 3.89% (inactive). For `C[C@@H]1CN([C@H](C)CO)C(=O)c2cc(NC(=O)Nc3ccc(C(F)(F)F)cc3)ccc2O[C@H]1CN(C)S(=O)(=O)c1ccc(Cl)cc1`, the activation (HDL uptake increase) (at 35 µM (top of the series)) is 5.12% (inactive). Still for that read-out and setting: for `COCCCNC(=O)CCSc1ccc(Cl)cc1` the value was -8.45% (inactive). `Cc1cccn2c(CN[C@@H]3CCCC[C@H]3c3ccccc3)c(C(=O)N3CCOCC3)nc12`: the activation (HDL uptake increase) (at 35 µM (top of the series)) is -6.75% (inactive). Consider `Cc1ccc(C(C(=O)NC2CCCC2)N(Cc2ccc(F)cc2)C(=O)c2csnn2)o1` (stereo not drawn), for which the activation (HDL uptake increase) (at 35 µM (top of the series)) is 6.32% (inactive). On the same count and under the same terms, the figure for `N#Cc1ccc(OCCOCCNC2CCCC2)cc1` is 13.4% (inactive); for `C=CCn1c(SCC(=O)N(CC)C2CCS(=O)(=O)C2)nnc1-c1ccccc1` (stereo not drawn) it is -7.41% (inactive); for `CCCCc1nc2cc(C(=O)NCc3ccccn3)ccc2o1` it is -3.25% (inactive). The same measure, in the same setting: the figure for `COc1ccc(N(C(=O)CNC(=O)c2ccco2)C(C(=O)NC2CCCCC2)c2ccncc2)cc1` (stereo not drawn) is 4.83% (inactive). As for `Cc1csc(SCC(=O)Nc2cc(C(N)=O)cc(C(N)=O)c2)n1`, the activation (HDL uptake increase) (at 35 µM (top of the series)) was -3.94% (inactive). For the compound `O=C(OCCc1cc2ccccc2c(=O)o1)c1ccco1`, under “at 35 µM (top of the series)”, the activation (HDL uptake increase) was -0.117% (inactive).

In the case of `Cc1ccc(NC(=O)CSc2nc3nc(C)c(Br)cc3[nH]2)cc1F`, the activation (HDL uptake increase) (at 35 µM (top of the series)) was -7.04% (inactive).

As for `COc1ccccc1CNC(=O)COC(=O)CSc1ccc(C)c(C)c1`, under “at 35 µM (top of the series)”, the activation (HDL uptake increase) is -0.519% (inactive).

Consider `CCN1CCN(c2ccc(S(=O)(=O)N3CCOCC3)cc2NC(=O)C2CCC(C(C)(C)C)CC2)CC1` (stereo not drawn), for which the AC40 is > 35 µM (inactive). In the case of `O=C1C(=O)N(CNc2cccnc2)c2ccccc21`, the activation (HDL uptake increase) (at 35 µM (top of the series)) is -7.96% (inactive). On the same count and under the same terms, for `COc1ccccc1C(=O)NNC(=S)NC(=O)c1sc2ccccc2c1Cl` the value was -16.5% (inactive); for `Cc1ccc(S(=O)(=O)CCC(=O)OCC(=O)Nc2cc(S(=O)(=O)N3CCOCC3)ccc2Cl)cc1`, -6.57% (inactive). As to `CCOC(=O)C1CCCN(C(=O)c2cc(S(=O)(=O)N3CCCCCC3)ccc2OC)C1` (stereo not drawn), the activation (HDL uptake increase) (at 35 µM (top of the series)) was -9.78% (inactive).

For the compound `O=C(Cc1ccc(S(=O)(=O)N2CCOCC2)s1)OCc1ccc(Cl)cc1`, the activation (HDL uptake increase) (at 35 µM (top of the series)) was -16.7% (inactive). Regarding `O=C(Cc1ccsc1)N1CCN(S(=O)(=O)c2cccc(F)c2)CC1`, the activation (HDL uptake increase) (at 35 µM (top of the series)) was -4.56% (inactive). For the compound `Cc1nc2c3ccccc3nc(NNC(=O)CCC(=O)N3CCN(c4ccccc4)CC3)n2n1`, the activation (HDL uptake increase) (at 35 µM (top of the series)) is 6.41% (inactive).

For `Cc1ccc(N(CC(=O)NC2CCC(C)CC2)S(=O)(=O)c2cccnc2)cc1` (stereo not drawn), for the setting “at 35 µM (top of the series)”, the activation (HDL uptake increase) was 6.17% (inactive). `CC(C)(C)OC(=O)NCCCC[C@H](NC(=O)c1nc[nH]c1C(=O)NC(c1ccccc1)c1ccccc1)C(=O)OC(C)(C)C`: the activation (HDL uptake increase) (at 35 µM (top of the series)) was -9.52% (inactive). On to `O=C(C1=C[C@@H](c2ccc(Br)cc2)C[C@@H](OCc2ccc(CO)cc2)O1)N1CCN(Cc2ccccc2)CC1`, for which the activation (HDL uptake increase) (at 35 µM (top of the series)) is 0.848% (inactive). On the same count and under the same terms, for `Cc1cc(N2C(=O)C3C4C=CC(C4)C3C2=O)no1` (stereo not drawn) the value was -2.45% (inactive). The same measure, in the same setting: the figure for `COc1ccc(NC(=O)CN(C)C(=O)C2(c3ccccc3)CCCC2)cc1` is -15.3% (inactive); for `COCCNC(=O)c1onc(CSc2cccc(OC)c2)c1C(=O)O` it is 11.9% (inactive); for `CC(Oc1ccccc1)C(=O)Nc1cccc(F)c1` (stereo not drawn) it is 5.9% (inactive). On the same count and under the same terms, the figure for `O=C(CCNS(=O)(=O)c1cccs1)N1CCc2ccccc2C1` is -0.366% (inactive). For `NC(=O)c1ncn([C@@H]2O[C@H](CN=C3NS(=O)(=O)c4ccccc43)[C@@H](O)[C@H]2O)n1`, the AC40 is > 35 µM (inactive).

As to `CCC(C)(C)NC(=O)C(c1cccnc1)N(CCOC)C(=O)Cn1nnc2ccccc21` (stereo not drawn), where the note is “at 35 µM (top of the series)”, the activation (HDL uptake increase) was -4.87% (inactive). In the case of `CNC[C@H](CC1CCCCC1)NC[C@H](Cc1ccccc1)NCCC12CC3CC(CC(C3)C1)C2`, the activation (HDL uptake increase) (at 35 µM (top of the series)) was -31.7% (inactive). Same read-out and setting: for `CC(=O)c1cccc(NC(=O)COC(=O)Cn2cnc3ccccc32)c1` the value was 12.6% (inactive). In the case of `Cc1nn(CC(=O)OC(C)C(=O)Nc2ccccc2[N+](=O)[O-])c(C)c1[N+](=O)[O-]` (stereo not drawn), the activation (HDL uptake increase) (at 35 µM (top of the series)) was -9.77% (inactive).

For `CC(C)C[C@@H](CN1CCCC1CN1C(=S)NC[C@@H]1Cc1ccc(O)cc1)N1C[C@H](Cc2ccc(O)cc2)N(CC2CCCCC2)C1=S` (stereo partly drawn), the activation (HDL uptake increase) (at 11 µM (top of the series)) was -10.2% (inactive). With `O=C(C[C@H]1C[C@H](C(=O)N2CCOCC2)[C@@]2(CCC3CCCC3)c3[nH]c4ccc(Cl)cc4c3CCN2C1=O)NCc1ccco1`, under “at 35 µM (top of the series)”, the activation (HDL uptake increase) is -3.23% (inactive).

In the case of `CCOC(=O)c1csc(NC(=O)CN2CCN(C)CC2)n1`, the activation (HDL uptake increase) (at 35 µM (top of the series)) was 10.4% (inactive).

With `COc1cccc(CC(=O)Nc2ccccc2C(=O)N2CCOCC2)c1`, the activation (HDL uptake increase) (at 35 µM (top of the series)) is 1.38% (inactive). On the same count and under the same terms, the figure for `CCc1ccc(C(=O)CN2C(=O)NC(C)(CCc3ccccc3)C2=O)cc1` (stereo not drawn) is -8.25% (inactive); for `CC(C)CC(CO)N1CCN(C(=O)c2cccc(C(F)(F)F)c2)CCC1=O` (stereo not drawn) it is -7.8% (inactive); for `O=C(NCC(=O)N1CCN(c2ccccc2)CC1)c1ccc(Br)o1` it is -14.4% (inactive). With `CCn1c(COC(=O)CNC(=O)c2ccccc2)nc2cc(S(=O)(=O)N(C)C)ccc21`, the activation (HDL uptake increase) (at 35 µM (top of the series)) is -13.2% (inactive). Same read-out and setting: for `CCOc1ccc(N(C(=O)c2ccc3c(c2)OCO3)C2C=CS(=O)(=O)C2)cc1` (stereo not drawn) the value was -7.61% (inactive). Still for that read-out and setting: the figure for `Cc1cc(S(=O)(=O)NCCc2ccccc2)c(C)s1` is -1.19% (inactive); for `O=C(O)CN(Cc1ccco1)S(=O)(=O)c1ccc(F)cc1` it is -1.5% (inactive); for `O=C1CCN(S(=O)(=O)c2ccccc2)CCN1CCOCc1cccc(F)c1` it is 7.83% (inactive).

Regarding `O=C(Nc1cccc(S(=O)(=O)NC2=NCCC2)c1)c1ccc(F)cc1F`, where the note is “at 35 µM (top of the series)”, the activation (HDL uptake increase) was -14.5% (inactive). The same measure, in the same setting: for `CN(CC(=O)Nc1cccc(F)c1)C(=O)C1CC(=O)N(CCc2ccccc2)C1` (stereo not drawn) the value was -13.2% (inactive); for `CC(C)=C1C2CCC1C(C(=O)NCCc1ccccc1)C2C(=O)O` (stereo not drawn), -7.43% (inactive); for `CN(C)CCn1c2c(c(SCC(=O)NCc3ccccc3)nc1=O)CCCC2`, 5.5% (inactive).

Turning to `COc1ccc(C(CNS(=O)(=O)c2ccc(NC(C)=O)c(OC)c2)N2CCCCC2)cc1` (stereo not drawn), where the note is “at 35 µM (top of the series)”, the activation (HDL uptake increase) is 5.72% (inactive). Still for that read-out and setting: for `Cc1ccc(C(=O)N/C(=C/c2ccccc2)C(=O)NC(Cc2ccccc2)C(=O)O)cc1` (stereo not drawn) the value was 8.63% (inactive). On the same count and under the same terms, the figure for `Cc1ccc(NC(=O)COC(=O)Cn2ccc(=O)[nH]c2=O)cc1C` is -10.8% (inactive); for `CC(OC(=O)c1ccc(S(=O)(=O)N2CCCCC2)cc1)C(=O)Nc1ccc(C(N)=O)cc1` (stereo not drawn) it is 0.807% (inactive). On to `CCOc1ccc(CN2CCNC(=O)C2CC(=O)NCCCOc2cccnc2)cc1` (stereo not drawn), for which, for the setting “at 35 µM (top of the series)”, the activation (HDL uptake increase) is -10.4% (inactive).
